Patent publication US20120295923A1, “Aminocyclohexanes and Aminotetrahydropyrans and Related Compounds As Gamma-Secretase Modulators” (PFIZER INC., priority 2010, published 2012)
pIC50: −log10 of the molar value. Where a name gives a salt, the structure may show the parent alone.

System: γ-secretase; production of amyloid beta protein Aβ(1-42)
Assay: Cell-Based γ-Secretase Assay with ELISA Readout
Settings: human WT-APP overexpressing CHO cells; geometric mean of 2-4 determinations unless otherwise indicated (footnote 10: 6-8; footnote 14: single determination); read-out: Aβ 42B IC50
Experimental: The ability of compounds to modulate production of amyloid beta protein A6(1-42) was determined using human WT-APP overexpressing CHO cells. Cells were plated at 22,000 cells/100 μL well in 96 well tissue culture treated, clear plates (Falcon) in DMEM/F12 based medium and incubated for 24 hours at 37° C. Compounds for testing were diluted in 100% DMSO to achieve an eleven points, half log, dose response for IC50 determinations. Compounds were added in fresh medium to achieve 1% final DMSO. Appropriate vehicle and inhibitor controls were added to obtain maximum and minimum inhibition values for the assay before the plates were incubated for about 24 hours at 37° C.
Coating of ELISA assay plates was initiated by addition of 50 μL/well of an in-house Aβ(1-42) specific antibody at (4 μg/mL) in 0.1 M NaHCO3 (pH 9.0) into black 384-well Maxisorp® plates (Nunc) and incubated overnight at 4° C. The capture antibody was then aspirated from the ELISA assay plates and 100 μL/well of Blocking Buffer (Dulbecco's PBS, 1.5% BSA (Sigma A7030)) added. Ambient temperature incubation was allowed to proceed for a minimum of two hours before washing 2×100 μL with Wash Buffer (Dulbecco's PBS, 0.05% Tween 20). Assay Buffer (Dulbecco's PBS, 1.0% BSA (Sigma A7030), 0.05% Tween 20) 20 μL/well was then added.
After incubation overnight at 37° C., 5% CO2, 40 μL (in duplicate) of experimental conditioned media were transferred into wells of the blocked ELISA plates containing the capture antibody, followed by overnight incubation at 4° C.
After overnight incubation of the ELISA assay plates at 4° C., unbound Aβ peptides were removed thorough (4×100 μL) washes with Wash Buffer. Europium (Eu) labeled (custom labeled, Perkin Elmer) Aβ(1-16) 6e10 Monoclonal Antibody (Covance #SIG-39320 was added, (50 μL/well Eu-6e10 @ 1:5000, 20 uM EDTA) in Assay Buffer. Incubation at ambient temperature for a minimum of 2 hours was followed by (4×100 μL) washes with Wash Buffer, before 50 μL/well of Delfia Enhancement Solution (PerkinElmer) was added. Following a one hour ambient temperature incubation, the plates were read on an EnVision plate reader (PerkinElmer) using standard DELFIA TRF settings. Data analysis including inhibitory IC50 determination was performed using nonlinear regression fit analysis (in-house software) and the appropriate plate mean values for the maximum and minimum inhibition controls.

Row | pIC50 | Structure (SMILES)
1 | 6.46 | CCCc1nscc1CN(CC(C)C)[C@@H]1CC[C@@H](CC(=O)O)C[C@H]1c1ccc(C(F)(F)F)cc1 [Example 59, {(1R,3S,4R)-4-{isobutyl[(3-propylisothiazol-4-yl)methyl]amino}-3-[4-(trifluoromethyl)phenyl]cyclohexyl}acetic acid, trifluoroacetate salt]
2 | 6.81 | CC(C)CN(CC1=CCCCC1)[C@@H]1CC[C@@H](CC(=O)O)C[C@H]1c1ccc(C(F)(F)F)cc1 [Example 60, {(1R,3S,4R)-4-[(cyclohex-1-en-1-ylmethyl)(isobutyl)amino]-3-[4-(trifluoromethyl)phenyl]cyclohexyl}acetic acid, trifluoroacetate salt]
3 | 6.22 | O=C(O)C[C@@H]1CC[C@@H](N(Cc2ccc3c(c2)CCO3)CC2(F)CCCCC2)[C@H](c2ccc(C(F)(F)F)cc2)C1 [Example 61, {(1R,3S,4R)-4-{(2,3-dihydro-1-benzofuran-5-ylmethyl)[(1-fluorocyclohexyl)methyl]amino}-3-[4-(trifluoromethyl)phenyl]cyclohexyl}acetic acid, trifluoroacetate salt]
4 | 6.65 | O=C(O)C[C@@H]1CC[C@@H](N(CC2=Cc3ccccc3OC2)CC2(F)CCCCC2)[C@H](c2ccc(C(F)(F)F)cc2)C1 [Example 62, {(1R,3S,4R)-4-{(2H-chromen-3-ylmethyl)[(1-fluorocyclohexyl)methyl]amino}-3-[4-(trifluoromethyl)phenyl]cyclohexyl}acetic acid, trifluoroacetate salt]
5 | 6.47 | CC(C)CN(CC1=CCC2CC1C2(C)C)[C@@H]1CC[C@@H](CC(=O)O)C[C@H]1c1ccc(C(F)(F)F)cc1 (stereo partly drawn) [Example 63, {(1R,3S,4R)-4-{[(6,6-dimethylbicyclo[3.1.1]hept-2-en-2-yl)methyl](isobutyl)amino}-3-[4-(trifluoromethyl)phenyl]cyclohexyl}acetic acid, trifluoroacetate salt]
6 | 6.08 | CCc1csc(CN(CC2(F)CCCCC2)[C@@H]2CC[C@@H](CC(=O)O)C[C@H]2c2ccc(C(F)(F)F)cc2)n1 [Example 64, {(1R,3S,4R)-4-{[(4-ethyl-1,3-thiazol-2-yl)methyl][(1-fluorocyclohexyl)methyl]amino}-3-[4-(trifluoromethyl)phenyl]cyclohexyl}acetic acid, trifluoroacetate salt]
7 | 6.29 | O=C(O)C[C@@H]1CC[C@@H](N(Cc2ccc3nonc3c2)CC2(F)CCCCC2)[C@H](c2ccc(C(F)(F)F)cc2)C1 [Example 65, {(1R,3S,4R)-4-{(2,1,3-benzoxadiazol-5-ylmethyl)[(1-fluorocyclohexyl)methyl]amino}-3-[4-(trifluoromethyl)phenyl]cyclohexyl}acetic acid, trifluoroacetate salt]
8 | 6.57 | CC(C)CN(Cc1ccc(C(C)(C)C)cc1)[C@@H]1CC[C@@H](CC(=O)O)C[C@H]1c1ccc(C(F)(F)F)cc1 [Example 66, {(1R,3S,4R)-4-[(4-tert-butylbenzyl)(isobutyl)amino]-3-[4-(trifluoromethyl)phenyl]cyclohexyl}acetic acid, trifluoroacetate salt]
9 | 6.39 | Cc1cc(CN(CC(C)C)[C@@H]2CC[C@@H](CC(=O)O)C[C@H]2c2ccc(C(F)(F)F)cc2)oc1C [Example 67, {(1R,3S,4R)-4-{[(4,5-dimethyl-2-furyl)methyl](isobutyl)amino}-3-[4-(trifluoromethyl)phenyl]cyclohexyl}acetic acid, trifluoroacetate salt]

More lines, now with the values behind:

Row | Structure (SMILES) | pIC50
10 | CC(C)CN(CC1(F)CCCCC1)[C@@H]1CC[C@@H](CC(=O)O)C[C@H]1c1ccc(C(F)(F)F)cc1 [Example 52, {(1R,3S,4R)-4-{[(1-fluorocyclohexyl)methyl] (isobutyl)amino}-3-[4-(trifluoromethyl)phenyl]cyclohexyl}acetic acid, trifluoroacetate salt] | 6.72
11 | Cc1nc(CN(CC2CCCC2)[C@@H]2CC[C@@H](CC(=O)O)C[C@H]2c2ccc(C(F)(F)F)cc2)co1 [Example 53, {(1R,3S,4R)-4-{(cyclopentylmethyl)[(2-methyl-1,3-oxazol-4-yl)methyl]amino}-3-[4-(trifluoromethyl)phenyl]cyclohexyl}acetic acid, ammonium salt] | 6.02
12 | O=C(O)C[C@@H]1CC[C@@H](N(CC2CCCC2)CC2CCCC2)[C@H](c2ccc(Cl)c(F)c2)O1 [Example 54, [(2S,5R,6S)-5-[bis(cyclopentylmethyl)amino]-6-(4-chloro-3-fluorophenyl)tetrahydro-2H-pyran-2-yl]acetic acid, ammonium acid] | 5.98
13 | O=C(O)C[C@@H]1CC[C@@H](N(CC2CCCC2)CC2CCCC2)[C@H](c2ccc(Cl)cc2)O1 [Example 55, [(2S,5R,6S)-5-[bis(cyclopentylmethyl)amino]-6-(4-chlorophenyl)tetrahydro-2H-pyran-2-yl]acetic acid] | 6.05
14 | CCOc1ccc(CN(CC(C)C)[C@@H]2CC[C@@H](CC(=O)O)C[C@H]2c2ccc(C(F)(F)F)cc2)cc1 [Example 57, {(1R,3S,4R)-4-[(4-ethoxybenzyl)(isobutyl)amino]-3-[4-(trifluoromethyl)phenyl]cyclohexyl}acetic acid, trifluoroacetate salt] | 6.77
15 | COc1cccc(F)c1CN(CC1(F)CCCCC1)[C@@H]1CC[C@@H](CC(=O)O)C[C@H]1c1ccc(C(F)(F)F)cc1 [Example 58, {(1R,3S,4R)-4-{[(1-fluorocyclohexyl)methyl](2-fluoro-6-methoxybenzyl)amino}-3-[4-(trifluoromethyl)phenyl]cyclohexyl}acetic acid, trifluoroacetate salt] | 6.51
